Patent US20250134870A1, “PATHWAY MODULATOR, PHARMACEUTICAL COMPOSITION HAVING SAME, USE THEREOF, AND THERAPEUTIC METHOD USING SAME” (Jiangsu Yahong Meditech Co., Ltd., priority 2021, published 2025)

How the values were obtained:
[1] = test system: mesenteric lymph node immune cell subpopulations; assay: Flow cytometry of immune cell subpopulations and cytokines in mesenteric lymph nodes of DSS colitis mice (Examples 2, 4); type: in vivo, C57BL/6J mice; settings: 30 mg/kg PO QD × 8 days (Test group 1#) vs solvent group
Protocol: The experimental endpoint was 24 hours after administration on Day 8 for the positive drug control group and the Test group 1 #to Test group 7 #of Example 1; the experimental endpoint of the normal group and the solvent group was the same as that of the positive drug control group and Test group 1 #to Test group 7 #.
At the experimental endpoint, mesenteric lymphatic nodes were collected and treated as follows:
1) The mesenteric lymph nodes were gently grinded and filtered with a […] strainer (BD bioscience, Catalog No. 352350) to obtain a cell suspension, and the cells were counted.
2) The cells were suspended in a suspension solution (the suspension solution was prepared by the following process: diluting the cell activation mixture with a mixture of 90 v % 1640 medium and 10 v % fetal bovine serum to a concentration of 1×), the cell density was adjusted to 2.5×10^7/mL, and the cells were incubated at 37° C. for 5 hours. 3) The cells were washed with Dulbecco's Phosphate Buffered Saline, and stained with viable/dead stain (stain No. 12 in Table 5) at room temperature for 15 min to distinguish between viable cells and dead cells; the cells were washed with staining buffer (prepared by mixing fetal bovine serum and Dulbecco's Phosphate Buffered Saline at a volume ratio of 2:98), Fc block working solution (prepared by mixing Fc block and staining buffer at a volume ratio of 1:200) was added, and the cells were incubated at room temperature for 15 minutes.
4) The cells were surface labeled with 100 μL of antibody staining solution for flow cytometry without washing and incubated at 4° C. for 30 minutes.
5) The cells were washed once with staining buffer, 100 μL of cell fixative solution was added, and the cells were incubated at 4° C. overnight.
6) 200 μL of cell permeabilization solution was added and incubated at 4° C. for 30 minutes.
7) After washing with 250 μL of cell permeabilization solution, the cells were suspended with 100 μL of staining buffer and fluorescence was detected with a BD LSRFortessa instrument.
8) The cell subpopulations analyzed by flow cytometry included CD4+ T cell subpopulation, IL-17A+CD4+ T cell subpopulation, IFN-γ+CD4+ T cell subpopulation, TNF-α+CD4+ T cell subpopulation, CD25+FOXP3+ Treg cell subpopulation; CD8+ T cell subpopulation, IL-17A+CD8+ T cell subpopulation, IFN-γ+CD8+ T cell subpopulation, TNF-α+CD8+ T cell subpopulation; CD69+B220+ B cell subpopulation and NK1.1+CD107a+ NK cell subpopulation.

[2] = test system: IRBP R16-induced experimental autoimmune uveoretinitis (EAU); assay: Bovine IRBP R16-induced experimental autoimmune uveoretinitis (EAU): clinical score, AUC, incidence (Example 6); type: in vivo, Lewis rats
Protocol: On Day-1 (i.e., the day before immunization, hereinafter), 60 rats were randomly divided into 6 groups (n=10) based on body weight (see Table 18). On Day 0, rats in Groups 2 to 6 were anesthetized with isoflurane, followed by subcutaneous injection of a total of […] of emulsion resulting from IRBP R16 and CFA emulsified at a 1:1 v/v ratio, on both thighs (50 μL at each site) and tail head (100 μL), respectively.
From Day 0 after immunization, the eyes of rats were checked daily with a flashlight by gently opening the upper and lower eyelids of the test rats, and the incidence of disease was recorded. Clinical symptoms were scored in a blind manner from the onset of disease to the end of the study according to the criteria listed in Table 17.
Dosing started from Day 0 accurately according to the animal body weight for a total of 16 days.
The results were expressed as “mean±standard error”. Graphpad Prism or SPSS was used for statistical analysis, and p<0.05 was considered statistically significant.

NCc1c[nH]c(=S)n1[C@H]1CCc2c(F)cc(F)cc2C1 [Nepicastat]
proportion of CD4+ T cell subpopulation [1]: reduce the proportion
proportion of CD25+FOXP3+ Treg cell subpopulation [1]: increase the proportion
secretion of IFN-γ by CD4+ T cell subpopulation [1]: reduce the secretion
secretion of IL-17A by CD4+ T cell subpopulation [1]: reduce the secretion
secretion of TNF-α by CD4+ T cell subpopulation [1]: reduce the secretion
Area under the curve (AUC) of clinical score ([2]; 25 mg/kg PO QD × 16 days): 45.30
Area under the curve (AUC) of clinical score ([2]; 50 mg/kg PO QD × 16 days): 39.65
Area under the curve (AUC) of clinical score ([2]; 100 mg/kg PO QD × 16 days): 37.65
symptoms of uveitis, EAU clinical score and clinical score AUC ([2]; 25, 50 and 100 mg/kg PO QD × 16 days): moderately ameliorate the symptoms of uveitis and reduced the EAU clinical score and clinical score AUC, but this effect was not statistically significant
Incidence rate (%) ([2]; Day 0, 25 mg/kg PO QD): 0%
Incidence rate (%) ([2]; Day 0, 50 mg/kg PO QD): 0%
Incidence rate (%) ([2]; Day 0, 100 mg/kg PO QD): 0%
Incidence rate (%) ([2]; Day 1, 25 mg/kg PO QD): 0%
Incidence rate (%) ([2]; Day 1, 50 mg/kg PO QD): 0%
Incidence rate (%) ([2]; Day 1, 100 mg/kg PO QD): 0%
Incidence rate (%) ([2]; Day 2, 25 mg/kg PO QD): 0%
Incidence rate (%) ([2]; Day 2, 50 mg/kg PO QD): 0%
Incidence rate (%) ([2]; Day 2, 100 mg/kg PO QD): 0%
Incidence rate (%) ([2]; Day 3, 25 mg/kg PO QD): 0%
Incidence rate (%) ([2]; Day 3, 50 mg/kg PO QD): 0%
Incidence rate (%) ([2]; Day 3, 100 mg/kg PO QD): 0%
Incidence rate (%) ([2]; Day 4, 25 mg/kg PO QD): 0%
Incidence rate (%) ([2]; Day 4, 50 mg/kg PO QD): 0%
Incidence rate (%) ([2]; Day 4, 100 mg/kg PO QD): 0%
Incidence rate (%) ([2]; Day 5, 25 mg/kg PO QD): 70%
Incidence rate (%) ([2]; Day 5, 50 mg/kg PO QD): 70%
Incidence rate (%) ([2]; Day 5, 100 mg/kg PO QD): 80%
Incidence rate (%) ([2]; Day 6, 25 mg/kg PO QD): 100%
Incidence rate (%) ([2]; Day 6, 50 mg/kg PO QD): 100%
Incidence rate (%) ([2]; Day 6, 100 mg/kg PO QD): 80%
Incidence rate (%) ([2]; Day 7, 25 mg/kg PO QD): 70%
Incidence rate (%) ([2]; Day 7, 50 mg/kg PO QD): 100%
Incidence rate (%) ([2]; Day 7, 100 mg/kg PO QD): 50%
Incidence rate (%) ([2]; Day 8, 25 mg/kg PO QD): 100%
Incidence rate (%) ([2]; Day 8, 50 mg/kg PO QD): 100%
Incidence rate (%) ([2]; Day 8, 100 mg/kg PO QD): 100%
Incidence rate (%) ([2]; Day 9, 25 mg/kg PO QD): 100%
Incidence rate (%) ([2]; Day 9, 50 mg/kg PO QD): 100%
Incidence rate (%) ([2]; Day 9, 100 mg/kg PO QD): 100%
Incidence rate (%) ([2]; Day 10, 25 mg/kg PO QD): 100%
Incidence rate (%) ([2]; Day 10, 50 mg/kg PO QD): 100%
Incidence rate (%) ([2]; Day 10, 100 mg/kg PO QD): 100%
Incidence rate (%) ([2]; Day 11, 25 mg/kg PO QD): 100%
Incidence rate (%) ([2]; Day 11, 50 mg/kg PO QD): 100%
Incidence rate (%) ([2]; Day 11, 100 mg/kg PO QD): 100%
Incidence rate (%) ([2]; Day 12, 25 mg/kg PO QD): 100%
Incidence rate (%) ([2]; Day 12, 50 mg/kg PO QD): 100%
Incidence rate (%) ([2]; Day 12, 100 mg/kg PO QD): 100%
Incidence rate (%) ([2]; Day 13, 25 mg/kg PO QD): 100%
Incidence rate (%) ([2]; Day 13, 50 mg/kg PO QD): 100%
Incidence rate (%) ([2]; Day 13, 100 mg/kg PO QD): 100%
Incidence rate (%) ([2]; Day 14, 25 mg/kg PO QD): 100%
Incidence rate (%) ([2]; Day 14, 50 mg/kg PO QD): 100%
Incidence rate (%) ([2]; Day 14, 100 mg/kg PO QD): 100%
Incidence rate (%) ([2]; Day 15, 25 mg/kg PO QD): 100%
Incidence rate (%) ([2]; Day 15, 50 mg/kg PO QD): 100%
Incidence rate (%) ([2]; Day 15, 100 mg/kg PO QD): 100%
Incidence rate (%) ([2]; Day 16, 25 mg/kg PO QD): 100%
Incidence rate (%) ([2]; Day 16, 50 mg/kg PO QD): 100%
Incidence rate (%) ([2]; Day 16, 100 mg/kg PO QD): 100%
Incidence rate (%) ([2]; Day −1, 25 mg/kg PO QD): 0%
Incidence rate (%) ([2]; Day −1, 50 mg/kg PO QD): 0%
Incidence rate (%) ([2]; Day −1, 100 mg/kg PO QD): 0%
inhibition at 25 mg/kg ([2]; Rattus norvegicus, 384 h, 25 mg/kg PO QD × 16 days, vs model control, read-out: Inhibition rate of clinical score AUC): 8.67%
inhibition at 50 mg/kg ([2]; Rattus norvegicus, 384 h, 50 mg/kg PO QD × 16 days, vs model control, read-out: Inhibition rate of clinical score AUC): 20.1%
inhibition at 100 mg/kg ([2]; Rattus norvegicus, 384 h, 100 mg/kg PO QD × 16 days, vs model control, read-out: Inhibition rate of clinical score AUC): 24.1%
